# In US6362352B1, “F18-labeled thia fatty acids and methods of making and using the same” (Duke University, priority 1999, dated 2002):
# Key:
# myocardium = settings: cited from earlier work
# [1] = PET imaging studies in patients with ischemic cardiomyopathy; type: in vivo; settings: same subjects
# Experimental: PET imaging studies were performed with 16F4THA in patients with ischemic cardiomyopathy. Conventional nuclear medicine perfusion scans were obtained in the same subjects.
# isolated rat hearts = assay: Tracer uptake versus palmitate beta-oxidation rate in isolated perfused rat hearts; parameters: species or system Sprague Dawley rats; settings: Langendorff perfusion, 0.15 mM palmitate, 5 mM glucose; both normoxic (95% oxygen) and hypoxic (35% oxygen) conditions
# Experimental: Model 4-thia analogs (16-[^18F]fluoro-4-thia-hexadecanoic acid and 12-[^18F]fluoro-4-thia-dodecanoic acid) were examined as tracers in isolated rat hearts. The perfusate was Krebs-Hensleit buffer with 1% albumin, 0.15 mM palmitate, and 5 mM glucose. Sprague Dawley rats (200-225 g) were fed ad libetum. The hearts were excised from pentobarbital-anesthetized animals and perused at 7 ml/min in Langendorff retrograde fashion. The perfusate was gassed with either 95% oxygen (normoxic) or 35% oxygen (hypoxic) gas mixture. The gases comprising the remaining fraction were nitrogen and carbon dioxide (5% for both). The tracer was administered as a bolus or as a pulse infusion into the isolated rat hearts. Pulse infusion allowed absolute quantification of ^18F accumulation rates that reflect the metabolic rate of the tracer in the heart. Clearance rates are measured during the washout phase of these experiments. Beta-oxidation rates of 9,10[^3H] palmitate were measured by collection of venous effluent samples and separation of titrated water.
structure (smiles),measurement,setting,value
CCCC([18F])CCCCCCCSCCCCC(=O)O (stereo not shown) [Compound 14F6THA],tracking of beta-oxidation of palmitate,myocardium; a number of conditions,tracks beta-oxidation of palmitate
same,sensitivity to inhibition of beta-oxidation in myocardium,myocardium; hypoxia with normal blood flow,insensitive
"O=C(O)CCSCCCCCCCCCCCC[18F] [Compound 16F4THA, 16-[^18F]Fluoro-4-thia-hexadecanoic acid]",quality of PET scans compared with conventional nuclear medicine perfusion scans,[1],superior quality
"O=C(O)CCCCSCCCCCCCCCCC[18F] [Compound 17F6THA, 17-[^18F]Fluoro-6-thia-heptadecanoic acid]",correlation of beta-oxidation rates with uptake rates of the tracer (r),isolated rat hearts,poor correlation
